According to EP4467141A1, “PYRAZOLO-QUINOLINES AS SELECTIVE INHIBITORS OF GENOTOXIC STRESS-INDUCED IKK/NF- KB PATHWAYS FOR CANCER THERAPY” (Max-Delbrück-Centrum für Molekulare Medizin in der …, priority 2023, dated 2024):

Assays:
Assay in all cases: Kinase panel study
Assay type in all cases: biochemical
Details in all cases: read-out: Percentage of inhibition; for inhibition at 1 µM: 1000nM; for inhibition at 10 µM: 10000nM
ABL1 = molecular target: T1, ABL1 (Homo sapiens, UniProt P00519)
T1 construct: purchased Thermo Fisher Scientific
In short: (§1)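 Lead compounds and derivatives were profiled by ZLyte or Adapta in vitro kinase assays. Each value reports inhibition percentage at one of two concentrations, 1 µM or 10 µM.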

ERBB4 (HER4) = molecular target: T2, ERBB4 (HER4) (Homo sapiens, UniProt Q15303)
T2 construct: purchased Thermo Fisher Scientific
In short: as §1

PAK3 = molecular target: T3, PAK3 (Homo sapiens, UniProt O75914)
T3 construct: purchased Thermo Fisher Scientific
In short: as §1

ADRBK2 (GRK3) = molecular target: T4, ADRBK2 (GRK3) (Homo sapiens, UniProt P35626)
T4 construct: purchased Thermo Fisher Scientific
T4 sequence (P35626 1-688): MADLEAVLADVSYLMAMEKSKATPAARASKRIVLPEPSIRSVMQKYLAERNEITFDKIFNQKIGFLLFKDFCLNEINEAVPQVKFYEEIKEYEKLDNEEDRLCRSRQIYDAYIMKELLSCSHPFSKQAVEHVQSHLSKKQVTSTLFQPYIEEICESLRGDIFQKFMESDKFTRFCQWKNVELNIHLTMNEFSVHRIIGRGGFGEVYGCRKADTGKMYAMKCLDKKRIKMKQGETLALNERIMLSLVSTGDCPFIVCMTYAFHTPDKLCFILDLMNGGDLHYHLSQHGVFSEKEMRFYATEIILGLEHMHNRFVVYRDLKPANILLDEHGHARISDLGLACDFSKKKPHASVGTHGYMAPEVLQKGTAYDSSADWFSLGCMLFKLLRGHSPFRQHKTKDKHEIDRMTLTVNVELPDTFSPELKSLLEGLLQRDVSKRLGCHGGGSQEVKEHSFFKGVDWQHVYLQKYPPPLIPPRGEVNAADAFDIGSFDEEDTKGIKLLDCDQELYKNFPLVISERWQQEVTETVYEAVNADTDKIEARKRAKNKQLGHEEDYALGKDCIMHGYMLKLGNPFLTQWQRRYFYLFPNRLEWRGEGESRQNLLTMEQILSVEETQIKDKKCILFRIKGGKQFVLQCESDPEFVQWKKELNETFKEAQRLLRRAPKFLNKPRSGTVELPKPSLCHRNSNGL
In short: as §1

ABL2 (Arg) = molecular target: T5, ABL2 (Arg) (Homo sapiens, UniProt P42684)
T5 construct: purchased Thermo Fisher Scientific
In short: as §1

NEK6 = molecular target: T6, NEK6 (Homo sapiens, UniProt Q9HC98)
T6 construct: purchased Thermo Fisher Scientific
In short: as §1

STK4 (MST1) = molecular target: T7, STK4 (MST1) (Homo sapiens, UniProt Q13043)
T7 construct: purchased Thermo Fisher Scientific
T7 sequence (Q13043 1-487): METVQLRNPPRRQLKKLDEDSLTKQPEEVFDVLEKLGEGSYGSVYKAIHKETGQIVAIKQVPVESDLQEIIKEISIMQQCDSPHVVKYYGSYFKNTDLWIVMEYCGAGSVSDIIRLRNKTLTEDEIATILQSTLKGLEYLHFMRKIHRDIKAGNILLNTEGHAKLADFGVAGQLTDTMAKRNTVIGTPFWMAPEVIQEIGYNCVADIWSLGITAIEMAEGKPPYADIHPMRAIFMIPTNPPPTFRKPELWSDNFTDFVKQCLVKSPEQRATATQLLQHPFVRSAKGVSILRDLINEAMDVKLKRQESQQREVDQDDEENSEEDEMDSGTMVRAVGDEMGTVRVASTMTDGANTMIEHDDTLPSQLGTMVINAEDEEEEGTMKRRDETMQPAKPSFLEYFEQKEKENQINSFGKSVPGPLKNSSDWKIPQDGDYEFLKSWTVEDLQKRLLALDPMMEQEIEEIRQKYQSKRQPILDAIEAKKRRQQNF
In short: as §1

T1 sequence (P00519 whole entry): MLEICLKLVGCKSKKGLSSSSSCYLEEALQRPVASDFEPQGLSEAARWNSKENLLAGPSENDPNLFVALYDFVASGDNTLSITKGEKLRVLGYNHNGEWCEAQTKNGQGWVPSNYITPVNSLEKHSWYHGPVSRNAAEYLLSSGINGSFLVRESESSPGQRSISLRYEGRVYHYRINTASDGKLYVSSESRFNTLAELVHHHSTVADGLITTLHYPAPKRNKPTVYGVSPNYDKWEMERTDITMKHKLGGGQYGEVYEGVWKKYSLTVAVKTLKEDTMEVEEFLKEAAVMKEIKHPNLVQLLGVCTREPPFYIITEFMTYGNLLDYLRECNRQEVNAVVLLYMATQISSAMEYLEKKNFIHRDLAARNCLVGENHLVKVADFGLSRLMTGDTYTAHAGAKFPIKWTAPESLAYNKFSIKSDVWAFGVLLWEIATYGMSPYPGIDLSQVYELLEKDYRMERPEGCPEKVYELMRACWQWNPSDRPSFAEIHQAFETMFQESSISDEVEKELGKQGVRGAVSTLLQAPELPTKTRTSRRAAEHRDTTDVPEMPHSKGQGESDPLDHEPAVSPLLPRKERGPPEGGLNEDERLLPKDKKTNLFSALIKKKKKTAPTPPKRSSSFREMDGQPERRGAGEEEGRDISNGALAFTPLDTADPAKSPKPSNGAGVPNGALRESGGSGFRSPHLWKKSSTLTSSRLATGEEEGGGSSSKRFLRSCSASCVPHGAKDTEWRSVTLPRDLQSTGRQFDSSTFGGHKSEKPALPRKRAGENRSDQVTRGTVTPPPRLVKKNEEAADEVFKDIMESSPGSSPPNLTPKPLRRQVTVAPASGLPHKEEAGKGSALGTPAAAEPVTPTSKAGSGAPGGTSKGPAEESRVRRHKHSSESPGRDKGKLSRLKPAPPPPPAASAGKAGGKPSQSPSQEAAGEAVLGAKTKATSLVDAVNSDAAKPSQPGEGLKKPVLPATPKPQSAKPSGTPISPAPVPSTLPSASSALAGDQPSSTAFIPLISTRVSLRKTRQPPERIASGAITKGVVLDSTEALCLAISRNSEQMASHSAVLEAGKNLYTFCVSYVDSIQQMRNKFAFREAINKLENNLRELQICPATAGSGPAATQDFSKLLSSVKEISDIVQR
T6 sequence (Q9HC98 whole entry): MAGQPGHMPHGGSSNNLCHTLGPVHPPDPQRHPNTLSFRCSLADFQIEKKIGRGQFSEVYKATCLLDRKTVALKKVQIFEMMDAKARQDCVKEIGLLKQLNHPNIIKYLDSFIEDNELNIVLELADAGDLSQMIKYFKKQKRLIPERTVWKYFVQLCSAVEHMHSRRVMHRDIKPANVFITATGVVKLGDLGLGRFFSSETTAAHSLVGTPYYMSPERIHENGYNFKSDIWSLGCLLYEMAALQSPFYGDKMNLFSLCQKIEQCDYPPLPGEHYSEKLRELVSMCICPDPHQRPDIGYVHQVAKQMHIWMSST
T5 sequence (P42684 whole entry): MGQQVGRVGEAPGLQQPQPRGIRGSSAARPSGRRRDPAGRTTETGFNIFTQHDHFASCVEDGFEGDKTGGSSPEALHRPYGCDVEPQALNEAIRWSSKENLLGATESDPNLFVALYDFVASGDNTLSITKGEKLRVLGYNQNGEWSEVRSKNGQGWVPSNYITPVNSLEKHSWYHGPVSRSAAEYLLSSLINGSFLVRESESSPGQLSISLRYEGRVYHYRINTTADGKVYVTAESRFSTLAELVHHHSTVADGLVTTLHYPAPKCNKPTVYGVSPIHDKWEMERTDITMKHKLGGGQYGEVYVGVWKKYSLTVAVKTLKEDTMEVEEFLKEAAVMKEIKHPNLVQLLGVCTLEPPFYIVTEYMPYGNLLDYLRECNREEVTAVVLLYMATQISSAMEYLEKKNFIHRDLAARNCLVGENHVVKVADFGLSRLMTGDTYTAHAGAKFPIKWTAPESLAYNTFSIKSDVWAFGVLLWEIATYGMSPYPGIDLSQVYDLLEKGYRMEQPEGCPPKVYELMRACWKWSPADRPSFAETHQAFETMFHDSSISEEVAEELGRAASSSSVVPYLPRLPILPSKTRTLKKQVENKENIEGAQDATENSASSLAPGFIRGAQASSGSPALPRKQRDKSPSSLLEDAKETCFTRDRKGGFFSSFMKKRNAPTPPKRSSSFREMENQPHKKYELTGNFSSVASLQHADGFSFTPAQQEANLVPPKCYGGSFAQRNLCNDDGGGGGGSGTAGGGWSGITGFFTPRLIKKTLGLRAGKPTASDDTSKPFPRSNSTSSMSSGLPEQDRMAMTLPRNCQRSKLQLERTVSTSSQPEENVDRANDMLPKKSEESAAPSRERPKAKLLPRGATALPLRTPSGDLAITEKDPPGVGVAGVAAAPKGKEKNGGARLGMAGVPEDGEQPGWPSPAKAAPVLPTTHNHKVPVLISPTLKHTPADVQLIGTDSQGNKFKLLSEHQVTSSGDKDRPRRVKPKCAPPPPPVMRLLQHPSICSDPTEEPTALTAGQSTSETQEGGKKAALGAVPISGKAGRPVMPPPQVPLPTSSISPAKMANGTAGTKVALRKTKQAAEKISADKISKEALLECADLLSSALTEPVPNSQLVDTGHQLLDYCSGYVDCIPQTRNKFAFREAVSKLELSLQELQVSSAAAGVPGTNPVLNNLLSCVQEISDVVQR
T3 sequence (O75914 whole entry): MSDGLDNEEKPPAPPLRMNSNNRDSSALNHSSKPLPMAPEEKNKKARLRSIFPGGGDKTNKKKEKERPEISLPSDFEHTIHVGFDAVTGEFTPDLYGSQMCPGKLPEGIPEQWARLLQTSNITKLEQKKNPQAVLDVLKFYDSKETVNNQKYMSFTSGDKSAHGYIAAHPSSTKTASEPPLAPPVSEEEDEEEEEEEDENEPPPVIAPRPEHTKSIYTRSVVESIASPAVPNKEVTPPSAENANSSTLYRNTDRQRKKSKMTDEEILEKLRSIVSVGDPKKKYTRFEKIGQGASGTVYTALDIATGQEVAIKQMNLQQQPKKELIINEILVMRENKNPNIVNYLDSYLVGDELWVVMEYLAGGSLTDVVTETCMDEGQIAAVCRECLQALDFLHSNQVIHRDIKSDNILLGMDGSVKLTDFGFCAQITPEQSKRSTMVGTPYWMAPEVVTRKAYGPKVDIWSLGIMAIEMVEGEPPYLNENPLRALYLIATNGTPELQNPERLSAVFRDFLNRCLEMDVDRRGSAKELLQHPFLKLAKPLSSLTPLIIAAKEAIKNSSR
T2 sequence (Q15303 26-1308): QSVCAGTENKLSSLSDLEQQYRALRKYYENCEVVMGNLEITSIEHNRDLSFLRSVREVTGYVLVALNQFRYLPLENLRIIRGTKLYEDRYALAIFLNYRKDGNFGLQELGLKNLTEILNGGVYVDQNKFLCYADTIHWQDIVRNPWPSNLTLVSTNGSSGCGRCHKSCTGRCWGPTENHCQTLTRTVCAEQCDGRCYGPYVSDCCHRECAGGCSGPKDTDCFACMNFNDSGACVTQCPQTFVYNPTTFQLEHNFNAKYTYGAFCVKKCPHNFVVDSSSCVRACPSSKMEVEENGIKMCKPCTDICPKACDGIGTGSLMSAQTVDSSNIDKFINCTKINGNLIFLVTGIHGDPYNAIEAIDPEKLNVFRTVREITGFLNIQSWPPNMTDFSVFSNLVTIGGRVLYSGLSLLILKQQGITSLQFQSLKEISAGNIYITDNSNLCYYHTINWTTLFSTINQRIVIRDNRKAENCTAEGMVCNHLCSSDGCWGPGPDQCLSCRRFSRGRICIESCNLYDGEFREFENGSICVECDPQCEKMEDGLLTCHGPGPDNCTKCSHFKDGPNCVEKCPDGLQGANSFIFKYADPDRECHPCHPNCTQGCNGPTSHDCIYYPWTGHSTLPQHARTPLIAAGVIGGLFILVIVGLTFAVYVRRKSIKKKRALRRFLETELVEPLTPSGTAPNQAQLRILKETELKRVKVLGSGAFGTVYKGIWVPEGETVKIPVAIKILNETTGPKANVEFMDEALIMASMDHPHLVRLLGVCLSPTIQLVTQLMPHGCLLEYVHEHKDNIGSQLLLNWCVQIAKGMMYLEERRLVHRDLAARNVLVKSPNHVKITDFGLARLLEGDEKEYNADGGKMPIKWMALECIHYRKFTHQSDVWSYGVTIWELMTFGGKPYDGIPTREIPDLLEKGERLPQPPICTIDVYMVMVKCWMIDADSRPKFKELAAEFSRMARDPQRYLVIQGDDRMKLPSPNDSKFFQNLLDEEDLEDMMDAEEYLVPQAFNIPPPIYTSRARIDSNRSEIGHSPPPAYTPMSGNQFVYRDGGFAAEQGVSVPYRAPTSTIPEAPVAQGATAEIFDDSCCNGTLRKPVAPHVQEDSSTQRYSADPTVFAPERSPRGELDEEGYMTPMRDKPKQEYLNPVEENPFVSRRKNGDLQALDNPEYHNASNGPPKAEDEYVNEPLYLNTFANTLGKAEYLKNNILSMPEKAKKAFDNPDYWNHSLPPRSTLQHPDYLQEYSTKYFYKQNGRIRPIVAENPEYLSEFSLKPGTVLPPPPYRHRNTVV

For COc1ccc2c(c1OC)c(=O)n1c3ccc(O)cc3c3ccnc2c31 [MW01, 5-Hydroxy-10,11-dimethoxy-9H-benzo[c]indolo[3,2,1-ij][1,5]naphthyridin-9-one], the inhibition at 1 µM (ABL1) was 15%, the inhibition at 10 µM (ABL1) was 27% and the inhibition at 1 µM (ERBB4 (HER4)) was -3%. It also gave an inhibition at 10 µM (ERBB4 (HER4)) of 4%, an inhibition at 1 µM (PAK3) of 10% and an inhibition at 10 µM (PAK3) of 15%. For the same compound, the inhibition at 1 µM (ADRBK2 (GRK3)) was 0%, the inhibition at 10 µM (ADRBK2 (GRK3)) was 5% and the inhibition at 1 µM (ABL2 (Arg)) was 9%. It also gave an inhibition at 10 µM (ABL2 (Arg)) of 21%, an inhibition at 1 µM (NEK6) of 4% and an inhibition at 10 µM (NEK6) of -4%. For the same compound, the inhibition at 1 µM (STK4 (MST1)) was 4% and the inhibition at 10 µM (STK4 (MST1)) was 11%.

COc1ccc2cc3c(N)nn(C(=O)c4cccc(N(C)C)c4)c3nc2c1 [MW05, (3-Amino-7-methoxypyrazolo[3,4-b]quinolin-1-yl)-[3-(dimethylamino)phenyl]methanone] was tested, and the inhibition at 1 µM (ABL1) was 4%, the inhibition at 10 µM (ABL1) was 6% and the inhibition at 1 µM (ERBB4 (HER4)) was 5%. It also gave an inhibition at 10 µM (ERBB4 (HER4)) of -11%, an inhibition at 1 µM (PAK3) of 26% and an inhibition at 10 µM (PAK3) of 15%. For the same compound, the inhibition at 1 µM (ADRBK2 (GRK3)) was 2%, the inhibition at 10 µM (ADRBK2 (GRK3)) was -3% and the inhibition at 1 µM (ABL2 (Arg)) was 5%. For the same compound, the inhibition at 10 µM (ABL2 (Arg)) was 2%, the inhibition at 1 µM (NEK6) was 1% and the inhibition at 10 µM (NEK6) was -4%. It also gave an inhibition at 1 µM (STK4 (MST1)) of 4% and an inhibition at 10 µM (STK4 (MST1)) of 3%.
